What was measured:
Assay in all cases: Test C postemergence
Assay type in all cases: in vivo
wild oat (Avena fatua) = conditions: for Plant response rating, Oat, Wild: scale 0 to 100
Method in brief: (§1)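 Rating scale 0–100: 0 means no effect, 100 complete control; taken visually 12 to 14 days post-treatment versus controls. Pre- and postemergence greenhouse applications, postemergence at 1- to 4-leaf stage, non-phytotoxic solvent with surfactant as carrier.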

[1] = test system: blackgrass (Alopecurus myosuroides); conditions: for Plant response rating, Blackgrass: scale 0 to 100
Method in brief: as §1

[2] = test system: wheat (Triticum aestivum); conditions: for Plant response rating, Wheat: scale 0 to 100
Method in brief: as §1

[3] = test system: green foxtail (Setaria viridis); conditions: for Plant response rating, Foxtail, Green: scale 0 to 100
Method in brief: as §1

[4] = test system: winter barley (Hordeum vulgare); conditions: for Plant response rating, Barley: scale 0 to 100
Method in brief: as §1

[5] = test system: canarygrass (Phalaris minor); conditions: for Plant response rating, Canarygrass: scale 0 to 100
Method in brief: as §1

[6] = test system: windgrass (Apera spica-venti); conditions: for Plant response rating, Windgrass: scale 0 to 100
Method in brief: as §1

[7] = test system: Italian ryegrass (Lolium multiflorum); conditions: for Plant response rating, Ryegrass, Italian: scale 0 to 100
Method in brief: as §1

[8] = test system: downy brome (Bromus tectorum); conditions: for Plant response rating, Bromegrass, Downy: scale 0 to 100
Method in brief: as §1

SMILES: COC(=O)c1nc(C2CC2)nc(NO)c1Br [Compound 35]
- Plant response rating, Oat, Wild (wild oat (Avena fatua); 250 g ai/ha): 45
- Plant response rating, Oat, Wild (wild oat (Avena fatua); 500 g ai/ha): 55
- pest or weed control at 62 g/ha (wild oat (Avena fatua); Avena fatua, post-emergence, 62 g ai/ha, scale 0 to 100 (0 no effect, 100 complete control), read-out: Oat, Wild plant response rating): 30%
- pest or weed control at 125 g/ha (wild oat (Avena fatua); Avena fatua, post-emergence, 125 g ai/ha, scale 0 to 100 (0 no effect, 100 complete control), read-out: Oat, Wild plant response rating): 45%
- Plant response rating, Blackgrass ([1]; 250 g ai/ha): 60
- Plant response rating, Blackgrass ([1]; 500 g ai/ha): 65
- pest or weed control at 62 g/ha ([1]; Alopecurus myosuroides, post-emergence, 62 g ai/ha, scale 0 to 100 (0 no effect, 100 complete control), read-out: Blackgrass plant response rating): 50%
- pest or weed control at 125 g/ha ([1]; Alopecurus myosuroides, post-emergence, 125 g ai/ha, scale 0 to 100 (0 no effect, 100 complete control), read-out: Blackgrass plant response rating): 50%
- Plant response rating, Wheat ([2]; 250 g ai/ha): 45
- Plant response rating, Wheat ([2]; 500 g ai/ha): 45
- plant injury at 62 g/ha ([2]; Triticum aestivum, post-emergence, 62 g ai/ha, scale 0 to 100 (0 no effect, 100 complete control), read-out: Wheat plant response rating): 35%
- plant injury at 125 g/ha ([2]; Triticum aestivum, post-emergence, 125 g ai/ha, scale 0 to 100 (0 no effect, 100 complete control), read-out: Wheat plant response rating): 40%
- Plant response rating, Foxtail, Green ([3]; 250 g ai/ha): 60
- Plant response rating, Foxtail, Green ([3]; 500 g ai/ha): 65
- pest or weed control at 62 g/ha ([3]; Setaria viridis, post-emergence, 62 g ai/ha, scale 0 to 100 (0 no effect, 100 complete control), read-out: Foxtail, Green plant response rating): 40%
- pest or weed control at 125 g/ha ([3]; Setaria viridis, post-emergence, 125 g ai/ha, scale 0 to 100 (0 no effect, 100 complete control), read-out: Foxtail, Green plant response rating): 50%
- Plant response rating, Barley ([4]; 250 g ai/ha): 40
- Plant response rating, Barley ([4]; 500 g ai/ha): 45
- plant injury at 62 g/ha ([4]; Hordeum vulgare, post-emergence, 62 g ai/ha, scale 0 to 100 (0 no effect, 100 complete control), read-out: Barley plant response rating): 20%
- plant injury at 125 g/ha ([4]; Hordeum vulgare, post-emergence, 125 g ai/ha, scale 0 to 100 (0 no effect, 100 complete control), read-out: Barley plant response rating): 35%
- Plant response rating, Canarygrass ([5]; 250 g ai/ha): 45
- Plant response rating, Canarygrass ([5]; 500 g ai/ha): 55
- pest or weed control at 62 g/ha ([5]; Phalaris minor, post-emergence, 62 g ai/ha, scale 0 to 100 (0 no effect, 100 complete control), read-out: Canarygrass plant response rating): 35%
- pest or weed control at 125 g/ha ([5]; Phalaris minor, post-emergence, 125 g ai/ha, scale 0 to 100 (0 no effect, 100 complete control), read-out: Canarygrass plant response rating): 45%
- Plant response rating, Windgrass ([6]; 250 g ai/ha): 65
- Plant response rating, Windgrass ([6]; 500 g ai/ha): 65
- pest or weed control at 62 g/ha ([6]; Apera spica-venti, post-emergence, 62 g ai/ha, scale 0 to 100 (0 no effect, 100 complete control), read-out: Windgrass plant response rating): 40%
- pest or weed control at 125 g/ha ([6]; Apera spica-venti, post-emergence, 125 g ai/ha, scale 0 to 100 (0 no effect, 100 complete control), read-out: Windgrass plant response rating): 55%
- Plant response rating, Ryegrass, Italian ([7]; 250 g ai/ha): 40
- Plant response rating, Ryegrass, Italian ([7]; 500 g ai/ha): 40
- pest or weed control at 62 g/ha ([7]; Lolium multiflorum, post-emergence, 62 g ai/ha, scale 0 to 100 (0 no effect, 100 complete control), read-out: Ryegrass, Italian plant response rating): 40%
- pest or weed control at 125 g/ha ([7]; Lolium multiflorum, post-emergence, 125 g ai/ha, scale 0 to 100 (0 no effect, 100 complete control), read-out: Ryegrass, Italian plant response rating): 40%
- Plant response rating, Bromegrass, Downy ([8]; 250 g ai/ha): 40
- Plant response rating, Bromegrass, Downy ([8]; 500 g ai/ha): 40
- pest or weed control at 62 g/ha ([8]; Bromus tectorum, post-emergence, 62 g ai/ha, scale 0 to 100 (0 no effect, 100 complete control), read-out: Bromegrass, Downy plant response rating): 30%
- pest or weed control at 125 g/ha ([8]; Bromus tectorum, post-emergence, 125 g ai/ha, scale 0 to 100 (0 no effect, 100 complete control), read-out: Bromegrass, Downy plant response rating): 30%
